From article PMC4454681, “Design and Evaluation of Antimalarial Peptides Derived from Prediction of Short Linear Motifs in Proteins Related to Erythrocyte Invasion” (PLoS ONE, 2015)
Entries after “also recorded” stand apart in the source; their conditions may differ. Where a SMILES comes first, the peptide text is derived from it. The star is where a group is joined. Palmitoyl = CCCCCCCCCCCCCCCC(=O)*

Key:
[1] = system: 3D7 line of P. falciparum; assay: Peptide inhibition of parasite growth (pLDH method); type: cell-based, Plasmodium falciparum; settings: for Growth inhibition: 100 μM peptide, 48 hour and 72 hour time points, asynchronous cultures, 2% haematocrit, 0.8% initial parasitaemia, max 0.5% DMSO, pLDH activity; for Growth inhibition / Concentration-response relationship of growth inhibition / Growth inhibition (dose-response curves): means of three experiments in duplicate; for Concentration-response relationship of growth inhibition: ten concentrations between 10 μM and 100 μM; for Concentration-response relationship of growth inhibition / Growth inhibition (dose-response curves): 48 and 72 hours
Procedure: P. falciparum line 3D7, adapted to grow in Albumax® (BioSciences, Dun Laoghaire, Ireland), was cultured in human erythrocytes (Irish Blood Transfusion Board, Ireland) in standard growth medium, in candle jars. Fresh erythrocytes were obtained every three weeks and washed according to lab protocols. Staining of blood smears was with Giemsa stain. The number of infected erythrocytes was counted by microscopy and the parasitaemia was calculated.
The antimalarial activity of test peptides (ChinaPeptides Co. Ltd, Shanghai, China) was determined in culture on the 3D7 line of P. falciparum using the parasite lactate dehydrogenase (pLDH) method in 96-well microtitre plates with modifications as previously described. Each test peptide was initially evaluated at three different concentrations, 100 μM, 10 μM and 1 μM, to determine activity range. The effect of the compounds was evaluated at 48 and 72 hours on growth of asynchronous cultures (cultured as described in the previous section) of P. falciparum, determined by the assay of pLDH activity. We used unsynchronised cultures in order (i) to make no prior assumptions about the stage of growth that might be inhibited and (ii) to avoid possible inhibitory effects of the synchronising protocol, e.g. sorbitol treatment, separation techniques, etc. The appropriate dilutions of the compounds were prepared in DMSO and added to the cultures of P. falciparum (2% haematocrit, 0.8% initial parasitaemia and a maximum of 0.5% DMSO). The same methodology was then used to assess the dose-response curves of peptides 5, 7, 10, 11, 12, 13 using ten concentrations between 10 μM and 100 μM.

[2] = system: P. falciparum late stages (trophozoite/schizont) introduced to fresh erythrocytes; assay: Schizont to ring development assay; type: cell-based, Plasmodium falciparum; settings: 100 μM peptide, 2 hours with magnetically purified schizonts, washed, fresh erythrocytes 14–16 hours; rings counted in Giemsa smears; two experiments in triplicate
Text: Routine erythrocytic P. falciparum cultures are an asynchronous culture consisting of rings, trophozoites, schizonts and merozoites. To enrich for the late stages of erythrocytic development, parasites at high parasitaemia (>15%) were subjected to magnetic selection. Parasitised erythrocytes were passed over a CS column (Miltenyi Biotec, Surrey, UK) which was mounted on a VarioMacs magnet (Miltenyi Biotec, Surrey, UK). The column was then washed with incomplete medium (RPMI 1640 supplemented with 25 mM HEPES, hypoxanthine [50 μg/ml], 0.16% w/v glucose) to remove unparasitised erythrocytes and was then removed from the magnet, a further wash with incomplete medium eluting late-stage parasitised erythrocytes.
Parasites synchronised to late stages (trophozoite/schizont) by magnetic selection were incubated with either the peptide being tested (100 μM concentration) or vehicle only control (DMSO) in complete medium for two hours. Treated schizonts were washed with complete medium and centrifugation at 350 xg for 10 minutes. Washing was repeated twice. Treated schizonts were then introduced to fresh erythrocytes at 2.5% hematocrit and incubated overnight (14–16 hours) with shaking. Parasitaemia was assessed by counting the number of ring stages in parasitised erythrocytes in Giemsa stained blood smears by light microscopy. This crude assay measures not just invasion but merozoite release and early ring-stage development.

[3] = system: erythrocytes from healthy human volunteers; settings: 100 μM peptide; approx. 1.5 × 10^8 erythrocytes, 15 minutes at 37°C, buffer A pH 7.4; absorbance 405 nm; compared with 0.1% (v/v) Triton X-100 = 100%; duplicate, three donors
Procedure: The hemolytic activity of the peptides was investigated using erythrocytes from healthy human volunteers. Blood was collected in the presence of 15% anticoagulant acid citrate glucose (ACD) (38 mM citric acid, 75 mM sodium citrate, 124 mM glucose) and was centrifuged at 150 xg for 10 minutes at room temperature. Plasma was removed and erythrocytes were washed twice with buffer A (pH 7.4) (130 mM sodium chloride, 10 mM sodium citrate, 9 mM sodium biocarbonate, 6 mM glucose, 0.9 mM magnesium chloride, 0.81 mM potassium hydrogen phosphate, 10 mM Tris), by cenrifugation at 1,000 xg for 5 minutes and resuspended in the same buffer. For the hemolysis assay approximately 1.5 × 10^8 erythrocytes were incubated with solutions of peptides 5, 10 or 12-Cam at 100 μM and 10 μM concentrations for 15 minutes at 37°C. After incubation, samples were centrifuged at 1,000 xg for 5 minutes and the supernatant was analysed for the presence of hemoglobin at an absorbance of 405 nm. Complete hemolysis was achieved using 0.1% (v/v) Triton X-100 yielding the 100% control value. The assay was run in duplicate with three different donors.

[4] = reason for exclusion from further investigation

With “pal-SYTIRRLIKA [Peptide 12, palmitoylated peptide from glycophorin-B, common human polymorphism of peptide 11]” the Growth inhibition [1] was “clearly observed”, the “Concentration-response relationship of growth inhibition” value [1] was “clear increases in growth inhibition with increasing concentration” and the “Ability of merozoites to establish new infections in fresh erythrocytes (ring parasitaemia, % of control)” value (“Ability … (ring parasitaemia, % of control)” below) [2] was “almost totally reduced”.
For CCCCCCCCCCCCCCCC(=O)O [Palmitate, reference compound], the Growth inhibition [1] was “no inhibitory effect”.
With “pal-KHRKGNNA-NH2 [Peptide 13, palmitoylated, amidated peptide from complement receptor type 1]” the “Growth inhibition (dose-response curves)” value ([1]; 10 μM) was “no inhibition” and the Growth inhibition [1] was “some growth inhibition; also recorded: moderate activity”.
For CCCCCCCCCCCCCCCC(=O)N[C@@H](CO)C(=O)N[C@@H](CO)C(=O)N[C@@H](CO)C(=O)N[C@@H](CCCNC(=N)N)C(=O)N[C@@H](CCCCN)C(=O)N[C@@H](CC(N)=O)C(=O)N[C@@H](CCCNC(=N)N)C(=O)N[C@@H](Cc1ccccc1)C(=O)N[C@@H](CCCNC(=N)N)C(=O)N[C@@H](Cc1ccc(O)cc1)C(=O)N[C@@H](CC(C)C)C(=O)N1CCC[C@H]1C(=O)N[C@@H](Cc1ccccc1)C(N)=O [Peptide 5] (Palmitoyl-SSSRKNRFRYLPF-NH2), the Growth inhibition [1] was “clearly observed”, the “Concentration-response relationship of growth inhibition” value [1] was “clear increases in growth inhibition with increasing concentration” and the “Ability … (ring parasitaemia, % of control)” value [2] was “almost totally reduced”.
For CCCCCCCCCCCCCCCC(=O)N[C@@H](CO)C(=O)N[C@@H](Cc1ccc(O)cc1)C(=O)N[C@H](C(=O)N[C@H](C(=O)N[C@@H](CCCNC(=N)N)C(=O)N[C@@H](CCCNC(=N)N)C(=O)N[C@@H](CC(C)C)C(=O)N[C@H](C(=O)N[C@@H](CCCCN)C(=O)N[C@@H](C)C(N)=O)[C@@H](C)CC)[C@@H](C)CC)[C@@H](C)O [Peptide 12-Cam] (Palmitoyl-SYTIRRLIKA-NH2), the “Growth inhibition of amidated peptide 12 versus its scrambled versions” value ([1]; 10 μM, 48 and 72 hours (Fig 4), three experiments in duplicate) was “more active than four scrambled controls”.
With “pal-SYSIRRLIKA [Peptide 11, palmitoylated peptide from glycophorin-B]” the Growth inhibition [1] was “some growth inhibition” and the “Concentration-response relationship of growth inhibition” value [1] was “no such clear effect”.
With CCCCCCCCCCCCCCCC(=O)N[C@@H](CCCNC(=N)N)C(=O)N[C@@H](CCCNC(=N)N)C(=O)N[C@@H](CC(C)C)C(=O)N[C@H](C(=O)N[C@@H](CCCCN)C(=O)N[C@@H](CCCCN)C(=O)N[C@@H](CO)C(=O)N1CCC[C@H]1C(N)=O)[C@@H](C)CC [Peptide 10] (Palmitoyl-RRLIKKSP-NH2) the Growth inhibition [1] was “clearly observed”, the “Concentration-response relationship of growth inhibition” value [1] was “clear increases in growth inhibition with increasing concentration” and the “Release of haemoglobin from erythrocytes” value [3] was “approximately 50%”. The “Ability … (ring parasitaemia, % of control)” value [2] was “not as significant as that of the other two peptides”.
For “pal-KRKLKEEQRTKKIKID [Peptide 4, palmitoylated peptide from putative calcium-transporting ATPase Q76NN8]”, the “Antimalarial activity (overall, growth inhibition assay)” value ([1]; tested at 100 μM, 10 μM and 1 μM) was “inactive”.
With “pal-KKKLYLYFE-NH2 [Peptide 3, shorter variation of peptide 2 from putative protein kinase Q8ILC4]” the Solubility [4] was “insolubility” and the Growth inhibition [1] was “some growth inhibition”.
For “pal-AALQEPALQDAGESSRKEYFI [glycophorin-C peptide, palmitoylated peptide from glycophorin-C, preliminary testing only]”, the “Activity in preliminary testing” value ([1]; preliminary testing, no further tests conducted) was “no activity”.
For pal-KEEIIEIVFDENEEKYF [Peptide 7], the “Growth inhibition (dose-response curves)” value ([1]; 10 μM) was “no inhibition” and the Growth inhibition [1] was “some growth inhibition; also recorded: moderate activity”.
